Experimental data: ChEMBL document CHEMBL1126547, “Cardioselective anti-ischemic ATP-sensitive potassium channel openers” (J Med Chem, 1993)
Calls of active or inactive are those of the source. No cut-off for these calls is given here.

Assays:
Rattus norvegicus [1] = organism: Rattus norvegicus; test: Vasorelaxant potency determined by inhibition of methoxamine-contracted rat aorta; assay type: functional
[2] = Ratio between EC25 and IC50 values was determined
Rattus norvegicus [3] = organism: Rattus norvegicus; test: Anti-ischemic potency determined as concentration required for increase in time to contracture in globally ischemic rat hearts; assay type: functional
[4] = Oral bioavailability in rat; assay type: ADME, organism-based; conditions: in vivo
[5] = Plasma half-life was determined in rats; assay type: ADME, organism-based; conditions: rat, read-out: Elimination half-life (converted)
Rattus norvegicus [6] = organism: Rattus norvegicus; test: Anti-ischemic potency determined as concentration required for increase in time to contracture in globally ischemic rat hearts 10 uM; No significant activity; assay type: functional

SMILES	IC50 (Rattus norvegicus [1]; Rattus norvegicus, Aorta) [µM]	Ratio [2]	EC25 (Rattus norvegicus [3]) [µM]	other results
CC1(C)Oc2ccc(C#N)cc2[C@@H](/N=C(\NC#N)Nc2ccc(O)cc2)[C@@H]1O	2.2	15.2	33.4	
CC1(C)Oc2ccc(C#N)cc2[C@@H](NC(=O)Nc2ccccc2)[C@@H]1O			5.1	
CCC(C)(C)/N=C(\NC#N)N[C@@H]1c2cc(C#N)ccc2OC(C)(C)[C@H]1O		0.7	20.1	
CC1(C)Oc2ccc(C#N)cc2[C@@H](NC(=NC#N)Nc2ccc(Cl)cc2)[C@@H]1O				bioavailability [4]: 61%; half-life [5]: 7 h
CC1(C)Oc2ccc(C#N)cc2[C@@H](/N=C(\NC#N)Nc2ccccc2)[C@@H]1O (stereo in doubt; 13)			>30	IC50 (Rattus norvegicus [1]): 4.2 µM
CC1(C)Oc2ccc(C#N)cc2[C@@H](/N=C(\NC#N)Nc2ccccc2)[C@@H]1O (stereo in doubt; 5) [listing 1 of 2 here]		7.9		
CC1(C)Oc2ccc(C#N)cc2[C@@H](/N=C(\NC#N)Nc2ccccc2)[C@@H]1O (stereo in doubt; 5) [listing 2 of 2 here]			11	
CC1(C)Oc2ccc(C#N)cc2[C@@H](/N=C(\NC#N)Nc2ccc(F)cc2)[C@@H]1O	1.4	2.5	3.5	bioavailability [4]: 64%; half-life [5]: 1.7 h
CC1(C)Oc2ccc(C#N)cc2[C@@H](/N=C(\NC#N)Nc2ccccc2)[C@@H]1O (stereo in doubt; 12) [listing 1 of 2 here]		4.7		
CC1(C)Oc2ccc(C#N)cc2[C@@H](/N=C(\NC#N)Nc2ccc(C(F)(F)F)cc2)[C@@H]1O	8.1	1.7	13.4	
CC1(C)Oc2ccc(C#N)cc2C(N2CCCC2=O)C1O (stereo unspecified) [CROMAKALIM]	0.032	278	8.9	
CC1(C)Oc2ccc(C#N)cc2[C@@H](/N=C(\NC#N)Nc2ccccc2)[C@@H]1O (stereo in doubt; 12) [listing 2 of 2 here]			6.1	IC50 (Rattus norvegicus [1]): 1.3 µM; bioavailability [4]: 70%; half-life [5]: 1.8 h

Further lines, with some results ahead:

IC50 (Rattus norvegicus [1]; Rattus norvegicus, Aorta) [µM]	SMILES	Ratio [2]	EC25 (Rattus norvegicus [3]) [µM]	other results
72.7	CC1(C)Oc2ccccc2[C@@H](/N=C(\NC#N)Nc2ccccc2)[C@@H]1O			EC25 (Rattus norvegicus [6]): inactive
1.7	CC1(C)Oc2ccc(C#N)cc2[C@@H](/N=C(\S)Nc2ccccc2)[C@@H]1O	4.5	7.7	
2	CC1(C)Oc2ccc([N+](=O)[O-])cc2[C@@H](/N=C(\NC#N)Nc2ccccc2)[C@@H]1O	3.6	7.2	
5.4	C#Cc1ccc2c(c1)[C@@H](/N=C(\NC#N)Nc1ccccc1)[C@H](O)C(C)(C)O2		>30	
1.8	CC1(C)Oc2ccc(C#N)cc2[C@@H](/N=C(\NC#N)Nc2ccc(Cl)cc2)[C@@H]1O	1.4	2.5	
